Columns and labels:
Format in all cases: cell-based
hERG channels = hERG channels (Homo sapiens (Human), UniProt Q12809); experiment: hERG Manual Patch Clamp Assay (HEK 293 cells stably expressing hERG channels); settings: for inhibition at 1 µM: human, HEK 293 cells stably expressing hERG channels, pH 7.4
Method: hERG electrophysiology assay: The experimental compounds were assessed for hERG activity on HEK 293 cells stably expressing hERG channels using patch clamp technique. Coverslips plated with hERG expressing cells were placed in the experimental chamber and were perfused with a solution composed of (in mM): 140 NaCl, 4 KCl, 1.8 CaCl2), 1 MgCl2, 10 Glucose, 10 HEPES (pH 7.4, NaOH) at room temperature. Borosilicate patch pipettes had tip resistances of 2-4 Mohms when filled with an internal solution containing: 130 KCl, 1 MgCl2, 1 CaCl2), 10 EGTA, 10 HEPES, 5 ATP-K2 (pH 7.2, KOH). The cells were clamped at −80 mV in whole cell configuration using an Axopatch 200B (Axon instruments, Union City, Calif.) patch clamp amplifier controlled by pClamp (Axon instruments) software. Upon formation of a gigaseal, the following voltage protocol was repeatedly (0.05 Hz) applied to record tail currents: depolarization step from −80 mV to +20 mV for 2 seconds followed by a hyperpolarization step to −65 mV (3 seconds) to elicit tail currents. Compounds were applied after stabilization of tail current. First, tail currents were recorded in presence of extracellular solution alone (control) and subsequently, in extracellular solution containing increasing compound concentrations. Each compound concentration was applied for 2-5 minutes. The percentage inhibition at each concentration was calculated as reduction in peak tail current with respect to the peak tail current recorded in the presence of control solution. Data analysis was performed in a custom made template. The percent inhibitions at different concentrations were plotted to obtain a concentration response curve, which was subsequently fitted with a four parameter equation to calculate hERG IC50 value.
A lower hERG % Inhibition value indicates less inhibition of the hERG current

hROMK (human Kir1.1) = hROMK (human Kir1.1) (Homo sapiens (Human), UniProt P48048); experiment: Thallium Flux Assay (FluxOR, CHO T-Rex hROMK stable cell line); settings: CHO T-Rex hROMK cells, 10-point concentration response curve; read-out: Human ROMK TH Flux IC50
hROMK = hROMK (Homo sapiens (Human), UniProt P48048); experiment: ROMK Manual Patch Clamp Assay; settings: whole-cell manual patch clamp, hROMK current; read-out: ROMK EP IC50
Sequence of hROMK (P48048 whole entry): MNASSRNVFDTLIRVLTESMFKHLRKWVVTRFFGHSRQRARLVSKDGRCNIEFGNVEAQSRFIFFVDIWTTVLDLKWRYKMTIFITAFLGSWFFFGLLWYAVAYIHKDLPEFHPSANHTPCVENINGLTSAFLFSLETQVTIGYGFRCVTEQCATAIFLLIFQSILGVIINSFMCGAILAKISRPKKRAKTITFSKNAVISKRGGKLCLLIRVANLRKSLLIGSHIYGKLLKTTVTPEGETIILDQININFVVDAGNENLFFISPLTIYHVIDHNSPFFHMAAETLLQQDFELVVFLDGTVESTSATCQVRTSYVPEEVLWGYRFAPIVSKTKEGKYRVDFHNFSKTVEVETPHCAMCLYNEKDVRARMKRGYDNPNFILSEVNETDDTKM
Method: Cell culture conditions: Cells were maintained in conditions similar to those for Thallium flux assay. hROMK channel expression was induced by adding 0.6 μg/ml of Doxycycline 16-24 hrs prior to the experiments. On the day of experiment, the cells were dissociated using Versene, resuspended in growth media and plated onto coverslips 15 minutes prior to use.
The cells were voltage clamped at −75 mV in whole-cell configuration using an Axopatch 200b or Multiclamp 700b (Molecular Devices) amplifier controlled by pClamp Software (Molecular Devices). The current was recorded by applying a voltage step to −120 mV every 10 seconds. […] At the end of the experiment, the cells were perfused with bath solution containing 2 mM Ba^2+ to isolate the contribution of hROMK current.
Data analysis: Raw current values (5 traces each for control, different compound concentration and Ba^2+ treatment groups) were exported from Clampfit into Microsoft Excel where the current remaining after application of Ba^2+ was subtracted from raw current to obtain hROMK specific current.

Sequence of hERG channels (Q12809 whole entry): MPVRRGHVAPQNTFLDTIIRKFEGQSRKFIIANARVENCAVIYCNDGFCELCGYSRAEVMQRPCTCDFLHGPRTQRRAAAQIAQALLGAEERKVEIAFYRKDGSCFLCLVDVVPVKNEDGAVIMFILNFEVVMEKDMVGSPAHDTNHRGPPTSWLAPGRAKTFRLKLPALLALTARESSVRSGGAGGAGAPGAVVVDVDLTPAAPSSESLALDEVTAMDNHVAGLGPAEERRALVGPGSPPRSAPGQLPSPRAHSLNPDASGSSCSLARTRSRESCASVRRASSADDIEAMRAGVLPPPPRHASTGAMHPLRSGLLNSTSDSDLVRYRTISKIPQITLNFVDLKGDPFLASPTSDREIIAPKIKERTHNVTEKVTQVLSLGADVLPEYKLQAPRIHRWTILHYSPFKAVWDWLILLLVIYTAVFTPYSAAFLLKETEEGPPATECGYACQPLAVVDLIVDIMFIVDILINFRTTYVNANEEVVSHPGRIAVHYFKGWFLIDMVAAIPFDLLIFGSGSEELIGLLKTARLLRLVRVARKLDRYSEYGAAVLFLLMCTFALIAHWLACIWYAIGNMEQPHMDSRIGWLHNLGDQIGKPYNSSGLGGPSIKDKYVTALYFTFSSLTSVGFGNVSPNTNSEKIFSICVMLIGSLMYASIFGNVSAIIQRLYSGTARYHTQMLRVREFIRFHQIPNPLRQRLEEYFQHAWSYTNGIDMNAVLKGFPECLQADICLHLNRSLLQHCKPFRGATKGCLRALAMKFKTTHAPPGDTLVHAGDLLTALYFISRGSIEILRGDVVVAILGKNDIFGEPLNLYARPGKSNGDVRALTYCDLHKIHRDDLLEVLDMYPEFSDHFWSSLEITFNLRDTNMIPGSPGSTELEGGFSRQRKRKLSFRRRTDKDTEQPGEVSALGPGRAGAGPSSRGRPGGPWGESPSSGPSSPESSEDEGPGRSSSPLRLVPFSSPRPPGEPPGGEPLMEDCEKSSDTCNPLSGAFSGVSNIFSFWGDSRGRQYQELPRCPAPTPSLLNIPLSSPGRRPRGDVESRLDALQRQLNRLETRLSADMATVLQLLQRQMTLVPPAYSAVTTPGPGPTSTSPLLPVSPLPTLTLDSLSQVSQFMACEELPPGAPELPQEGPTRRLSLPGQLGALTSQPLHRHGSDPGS
Sequence of hROMK (human Kir1.1) (P48048 whole entry): as the sequence (P48048 whole entry) above

SMILES | inhibition at 1 µM (hERG channels) [%] | IC50 (hROMK (human Kir1.1)) [nM] | IC50 (hROMK) [nM] | hERG EP IC50 (% Inh @1 uM) (hERG channels; % inhibition of hERG current at 1 uM, manual patch clamp, HEK 293 cells) [%]
Cc1c(C(O)CNCc2ccc(-c3ccc4oc(=O)n(C)c4c3)nc2)ccc2c1COC2=O (single isomer, unassigned) [Example 23-I, 5-(5-(((2-hydroxy-2-(4-methyl-1-oxo-1,3-dihydroisobenzofuran-5-yl)ethyl)amino)methyl)pyridin-2-yl)-3-methylbenzo[d]oxazol-2(3H)-one] | 13 | 160 | 15 | 
Cc1c(C(O)CN(C)Cc2ccc(-c3ccc(C#N)c(F)c3)cc2)ccc2c1COC2=O (single isomer, unassigned) [Example 27-I, 3-fluoro-4′-(((2-hydroxy-2-(4-methyl-1-oxo-1,3-dihydroisobenzofuran-5-yl)ethyl)(methyl)amino)methyl)-[1,1′-biphenyl]-4-carbonitrile] | 95 | 40 | 6.8 | 
Cc1cc(-n2cc(CNCC(O)c3ccc4c(c3C3CC3)COC4=O)cn2)ncc1C#N (single isomer, unassigned) [Example 46-I, 6-(4-(((2-(4-cyclopropyl-1-oxo-1,3-dihydroisobenzofuran-5-yl)2-hydroxyethyl)amino)meth-yl)-1H-pyrazol-1-yl)-4-methylnicotinonitrile] |  | 33 | 17 | 
CN(Cc1ccc(-c2ccc3oc(=O)n(C)c3c2)nc1)C[C@H](O)c1ccc2oc(=O)n(C)c2c1 [Example 6-I] |  |  | 11 | 26
CO[C@@H](CNCc1cnn(-c2cc(C)c(C#N)cn2)c1)c1ccc2c(c1C)COC2=O [Example 147, (R)-6-(4-(((2-methoxy-2-(4-methyl-1-oxo-1,3-dihydroisobenzofuran-5-yl)ethyl)amino)methyl)-1H-pyrazol-1-yl)-4-methylnicotinonitrile] | 28 | 37 |  | 
Cc1c([C@@H](O)CNCc2cnn(-c3cc(C4CC4)c(C#N)cn3)c2)ccc2c1COC2=O [Example 148, (R)-4-cyclopropyl-6-(4-(((2-hydroxy-2-(4-methyl-1-oxo-1,3-dihydroisobenzofuran-5-yl)ethyl)amino)methyl)-1H-pyrazol-1-yl)nicotinonitrile] | 72 | 200 |  | 
Cc1c([C@@H](O)CNCc2cn(-c3ccc4oc(=O)n(C)c4c3C)cn2)ccc2c1COC2=O [Example 149, (R)-5-(4-(((2-hydroxy-2-(4-methyl-1-oxo-1,3-dihydroisobenzofuran-5-yl)ethyl)amino)methyl)-1H-imidazol-1-yl)-3,4-dimethylbenzo[d]oxazol-2(3H)-one] | 8.6 | 84 |  | 
COc1cc(-n2cc(CNC[C@H](O)c3ccc4c(c3OC)COC4=O)cn2)ncc1C#N [Example 150, (R)-6-(4-(((2-hydroxy-2-(4-methoxy-1-oxo-1,3-dihydroisobenzofuran-5-yl)ethyl)amino)methyl)-1H-pyrazol-1-yl)-4-methoxynicotinonitrile] | 55 | 56 |  | 
Cc1c([C@@H](O)CNCc2ccc(-n3ccc(C#N)n3)nc2)ccc2c1COC2=O [Example 151, (R)-1-(5-(((2-hydroxy-2-(4-methyl-1-oxo-1,3-dihydroisobenzofuran-5-yl)ethyl)amino)methyl)pyridin-2-yl)-1H-pyrazole-3-carbonitrile] | 45 | 29 |  | 
CCOc1cc(-n2cc(CNC[C@H](O)c3ccc4c(c3C)COC4=O)cn2)ncc1C#N [Example 152, (R)-4-ethoxy-6-(4-(((2-hydroxy-2-(4-methyl-1-oxo-1,3-dihydroisobenzofuran-5-yl)ethyl)amino)methyl)-1H-pyrazol-1-yl)nicotinonitrile] | 64 | 6.2 |  | 
CCOc1cc(-n2ncc(CNC[C@H](O)c3ccc4c(c3C)COC4=O)n2)ncc1C#N [Example 155, (R)-4-ethoxy-6-(4-(((2-hydroxy-2-(4-methyl-1-oxo-1,3-dihydroisobenzofuran-5-yl)ethyl)amino)methyl)-2H-1,2,3-triazol-2-yl)nicotinonitrile] | 20 | 31 |  | 
CCOc1cc(-n2cc(CNC[C@H](O)c3ccc4c(c3C)COC4=O)nn2)ncc1C#N [Example 156, (R)-4-ethoxy-6-(4-(((2-hydroxy-2-(4-methyl-1-oxo-1,3-dihydroisobenzofuran-5-yl)ethyl)amino)methyl)-1H-1,2,3-triazol-1-yl)nicotinonitrile] | 15 | 9.7 |  | 
Cc1cc(-n2cc(CNC[C@H](O)c3ccc4c(c3C)COC4=O)n(C)c2=O)ncc1C#N [Example 159, (R)-6-(4-(((2-hydroxy-2-(4-methyl-1-oxo-1,3-dihydroisobenzofuran-5-yl)ethyl)amino)methyl)-3-methyl-2-oxo-2,3-dihydro-1H-imidazol-1-yl)-4-methylnicotinonitrile] | 6.5 | 93 |  | 
Cc1c([C@@H](O)CNCc2cnn(-c3ccc(C#N)cc3)c2)ccc2c1COC2=O [Example 160, (R)-4-(4-(((2-hydroxy-2-(4-methyl-1-oxo-1,3-dihydroisobenzofuran-5-yl)ethyl)amino)methyl)-1H-pyrazol-1-yl)benzonitrile] | 89 | 24 |  | 
Cc1c([C@@H](O)CNCc2cnn(-c3cccc(C#N)c3)c2)ccc2c1COC2=O [Example 161, (R)-3-(4-(((2-hydroxy-2-(4-methyl-1-oxo-1,3-dihydroisobenzofuran-5-yl)ethyl)amino)methyl)-1H-pyrazol-1-yl)benzonitrile] | 48 | 77 |  | 
Cc1c([C@@H](O)CN(Cc2ccc(-c3ccc4oc(=O)n(C)c4c3)nc2)CC2CC2)ccc2c1COC2=O [Example 162, (R)-5-(5-(((cyclopropylmethyl)(2-hydroxy-2-(4-methyl-1-oxo-1,3-dihydroisobenzofuran-5-yl)ethyl)amino)methyl)pyridin-2-yl)-3-methylbenzo[d]oxazol-2(3H)-one] | 44 | 110 |  | 
Cc1cc(-n2cc(CNC[C@H](F)c3ccc4c(c3C)COC4=O)cn2)ncc1C#N [Example 167, (R)-6-(4-(((2-fluoro-2-(4-methyl-1-oxo-1,3-dihydroisobenzofuran-5-yl)ethyl)amino)methyl)-1H-pyrazol-1-yl)-4-methylnicotinonitrile] | 41 | 68 |  | 
Cc1cc(-n2cc(CNC[C@H](O)c3ccc4c(c3C)COC4=O)c3cccnc32)ncc1C#N [Example 169, (R)-6-(3-(((2-hydroxy-2-(4-methyl-1-oxo-1,3-dihydroisobenzofuran-5-yl)ethyl)amino)methyl)-1H-pyrrolo[2,3-b]pyridin-1-yl)-4-methylnicotinonitrile] | 79 | 59 |  | 
COc1cc(-n2cc(CNC[C@H](O)c3ccc4c(c3C)COC4=O)cn2)ncc1C#N [Example 173, (R)-6-(4-(((2-hydroxy-2-(4-methyl-1-oxo-1,3-dihydroisobenzofuran-5-yl)ethyl)amino)methyl)-1H-pyrazol-1-yl)-4-methoxynicotinonitrile] | 77 | 2.4 |  | 
Cc1c([C@@H](O)CNCc2ccc(-n3cc(C#N)c(OC(F)F)n3)nc2)ccc2c1COC2=O [Example 175, (R)-3-(difluoromethoxy)-1-(5-(((2-hydroxy-2-(4-methyl-1-oxo-1,3-dihydroisobenzofuran-5-yl)ethyl)amino)methyl)pyridin-2-yl)-1H-pyrazole-4-carbonitrile] | 86 | 3.6 |  | 
